Experimental data taken from PubChem BioAssay AID1963438 (Molecular Pharmacology Branch, DTP, NCI, 2024).

Tested on: NCI-H510 multicellular tumor spheroid growth, % test/control
Assay: Anticancer human tumor NCI-H510 cell line growth inhibition [Asc];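 further: spheroids exposed to agents for 7 days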;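 on viability, T/C: 100% = DMSO vehicle control wells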
Settings: for IC50: curve of first compound; for viability, T/C: stronger effect = lower value; active means viability on the fitted dose curve at most 10% of control; inactive means the rest
Method in brief: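 Spheroid model: tumor line + HUVEC + hMSC. Single agents and combinations; top conc. at/near clinical Cmax (10 microM if undetermined), half-log dilutions. DMSO stocks at 800-fold test concentration.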

[1] = second compound 0.1 µM, first compound 0.0316 µM
[2] = second compound 0.1 µM, first compound 0.1 µM
[3] = second compound 0.1 µM, first compound 0.316 µM
[4] = second compound 0.1 µM, first compound 1 µM
[5] = second compound 0.316 µM, first compound 0.0316 µM
[6] = second compound 0.316 µM, first compound 0.1 µM
[7] = second compound 0.316 µM, first compound 0.316 µM
[8] = second compound 0.316 µM, first compound 1 µM
[9] = second compound 1 µM, first compound 0.0316 µM
[10] = second compound 1 µM, first compound 0.1 µM
[11] = second compound 1 µM, first compound 0.316 µM
[12] = second compound 1 µM, first compound 1 µM

CCN1CCN(Cc2ccc(Nc3ncc(F)c(-c4cc(F)c5nc(C)n(C(C)C)c5c4)n3)nc2)CC1 + Cc1c(S(C)(=O)=O)c(-c2cc(F)cc(N3CCN(c4ccc(NS(=O)(=O)c5ccc(NC(CCN6CCC(C(=O)OCCCP(=O)(O)O)CC6)CSc6ccccc6)c(S(=O)(=O)C(F)(F)F)c5)cc4)CC3)c2)c(-c2ccc(Cl)cc2)n1C(C)C
> 1000 nM: IC50 (second compound 0.1 µM) | IC50 (second compound 0.316 µM)
640 nM: IC50 (second compound 3.16 µM)
inactive: viability, T/C (second compound 0.1 µM, first compound 0.00316 µM) 112% | viability, T/C (second compound 0.1 µM, first compound 0.01 µM) 91.2% | viability, T/C [1] 98% | viability, T/C [2] 75.1% | viability, T/C [3] 86.1% | viability, T/C [4] 103% | viability, T/C (second compound 0.316 µM, first compound 0.00316 µM) 104% | viability, T/C (second compound 0.316 µM, first compound 0.01 µM) 94.8% | viability, T/C [5] 102% | viability, T/C [6] 108% | viability, T/C [7] 88.3% | viability, T/C [8] 87.8% | viability, T/C (second compound 1 µM, first compound 0.00316 µM) 98.4% | viability, T/C (second compound 1 µM, first compound 0.01 µM) 90.7% | viability, T/C [9] 76.2% | viability, T/C [10] 74.3% | viability, T/C [11] 74.9% | viability, T/C [12] 38.2% | viability, T/C (second compound 3.16 µM, first compound 0.00316 µM) 69.6% | viability, T/C (second compound 3.16 µM, first compound 0.01 µM) 93% | viability, T/C (second compound 3.16 µM, first compound 0.0316 µM) 107% | viability, T/C (second compound 3.16 µM, first compound 0.1 µM) 112% | viability, T/C (second compound 3.16 µM, first compound 0.316 µM) 61.2% | viability, T/C (second compound 3.16 µM, first compound 1 µM) 42.9% | viability, T/C (second compound 10 µM, first compound 0.00316 µM) 104% | viability, T/C (second compound 10 µM, first compound 0.01 µM) 102% | viability, T/C (second compound 10 µM, first compound 0.0316 µM) 78.2% | viability, T/C (second compound 10 µM, first compound 0.1 µM) 90.4% | viability, T/C (second compound 10 µM, first compound 0.316 µM) 56.9% | viability, T/C (second compound 10 µM, first compound 1 µM) 18.8%
651 nM: IC50 (second compound 1 µM)
408 nM: IC50 (second compound 10 µM)

COc1c(OCCCN2CCOCC2)ccc2c3n(c(=NC(=O)c4cnc(N)nc4)nc12)CCN3 + CCN1C(C(=O)NC23CCC(C(=O)O)(CC2)CC3)C(c2cccc(Cl)c2F)C2(C(=O)Nc3cc(Cl)ccc32)C12CCCCC2
inactive: viability, T/C (second compound 0.03 µM, first compound 0.00316 µM) 94.2% | viability, T/C (second compound 0.03 µM, first compound 0.01 µM) 112% | viability, T/C (second compound 0.03 µM, first compound 0.0316 µM) 96.4% | viability, T/C (second compound 0.03 µM, first compound 0.1 µM) 93.6% | viability, T/C (second compound 0.03 µM, first compound 0.316 µM) 70% | viability, T/C (second compound 0.03 µM, first compound 1 µM) 58.7% | viability, T/C (second compound 0.0949 µM, first compound 0.00316 µM) 94.3% | viability, T/C (second compound 0.0949 µM, first compound 0.01 µM) 91% | viability, T/C (second compound 0.0949 µM, first compound 0.0316 µM) 98.4% | viability, T/C (second compound 0.0949 µM, first compound 0.1 µM) 99.3% | viability, T/C (second compound 0.0949 µM, first compound 0.316 µM) 92.5% | viability, T/C (second compound 0.0949 µM, first compound 1 µM) 65.6% | viability, T/C (second compound 0.3 µM, first compound 0.00316 µM) 92.3% | viability, T/C (second compound 0.3 µM, first compound 0.01 µM) 101% | viability, T/C (second compound 0.3 µM, first compound 0.0316 µM) 105% | viability, T/C (second compound 0.3 µM, first compound 0.1 µM) 105% | viability, T/C (second compound 0.3 µM, first compound 0.316 µM) 95.6% | viability, T/C (second compound 0.3 µM, first compound 1 µM) 51.2% | viability, T/C (second compound 0.949 µM, first compound 0.00316 µM) 80.6% | viability, T/C (second compound 0.949 µM, first compound 0.01 µM) 99.5% | viability, T/C (second compound 0.949 µM, first compound 0.0316 µM) 114% | viability, T/C (second compound 0.949 µM, first compound 0.1 µM) 104% | viability, T/C (second compound 0.949 µM, first compound 0.316 µM) 62% | viability, T/C (second compound 0.949 µM, first compound 1 µM) 80.4% | viability, T/C (second compound 3 µM, first compound 0.00316 µM) 112% | viability, T/C (second compound 3 µM, first compound 0.01 µM) 105% | viability, T/C (second compound 3 µM, first compound 0.0316 µM) 73.9% | viability, T/C (second compound 3 µM, first compound 0.1 µM) 85% | viability, T/C (second compound 3 µM, first compound 0.316 µM) 86.5% | viability, T/C (second compound 3 µM, first compound 1 µM) 83.3%
> 1000 nM: IC50 (second compound 0.03 µM) | IC50 (second compound 0.0949 µM) | IC50 (second compound 0.3 µM) | IC50 (second compound 0.949 µM) | IC50 (second compound 3 µM)

C#Cc1c(F)ccc2cc(O)cc(-c3ncc4c(N5CC6CCC(C5)N6)nc(OCC56CCCN5CC(F)C6)nc4c3F)c12 (configuration not stated) + CNC(C)C(=O)NC1CN(S(=O)(=O)c2cccc(S(=O)(=O)N3CCC4CCC(C(=O)NC(c5ccccc5)c5ccccc5)N4C(=O)C(NC(=O)C(C)NC)C3)c2)CCC2CCC(C(=O)NC(c3ccccc3)c3ccccc3)N2C1=O
> 10000 nM: IC50 (second compound 0.00316 µM) | IC50 (second compound 0.01 µM) | IC50 (second compound 0.0316 µM) | IC50 (second compound 0.1 µM) | IC50 (second compound 0.316 µM) | IC50 (second compound 1 µM)
inactive: viability, T/C (second compound 0.00316 µM, first compound 0.0316 µM) 97.9% | viability, T/C (second compound 0.00316 µM, first compound 0.1 µM) 101% | viability, T/C (second compound 0.00316 µM, first compound 0.316 µM) 93.2% | viability, T/C (second compound 0.00316 µM, first compound 1 µM) 87.7% | viability, T/C (second compound 0.00316 µM, first compound 3.16 µM) 102% | viability, T/C (second compound 0.00316 µM, first compound 10 µM) 104% | viability, T/C (second compound 0.01 µM, first compound 0.0316 µM) 109% | viability, T/C (second compound 0.01 µM, first compound 0.1 µM) 98.3% | viability, T/C (second compound 0.01 µM, first compound 0.316 µM) 97.1% | viability, T/C (second compound 0.01 µM, first compound 1 µM) 99.7% | viability, T/C (second compound 0.01 µM, first compound 3.16 µM) 107% | viability, T/C (second compound 0.01 µM, first compound 10 µM) 93.3% | viability, T/C (second compound 0.0316 µM, first compound 0.0316 µM) 103% | viability, T/C (second compound 0.0316 µM, first compound 0.1 µM) 97.7% | viability, T/C (second compound 0.0316 µM, first compound 0.316 µM) 96.7% | viability, T/C (second compound 0.0316 µM, first compound 1 µM) 106% | viability, T/C (second compound 0.0316 µM, first compound 3.16 µM) 114% | viability, T/C (second compound 0.0316 µM, first compound 10 µM) 90.8% | viability, T/C [1] 112% | viability, T/C [2] 103% | viability, T/C [3] 97.8% | viability, T/C [4] 97.8% | viability, T/C (second compound 0.1 µM, first compound 3.16 µM) 112% | viability, T/C (second compound 0.1 µM, first compound 10 µM) 96.6% | viability, T/C [5] 114% | viability, T/C [6] 101% | viability, T/C [7] 104% | viability, T/C [8] 104% | viability, T/C (second compound 0.316 µM, first compound 3.16 µM) 97.7% | viability, T/C (second compound 0.316 µM, first compound 10 µM) 114% | viability, T/C [9] 120% | viability, T/C [10] 107% | viability, T/C [11] 108% | viability, T/C [12] 95.7% | viability, T/C (second compound 1 µM, first compound 3.16 µM) 104% | viability, T/C (second compound 1 µM, first compound 10 µM) 114%
